Publication PMC12040969, “Design, synthesis, in silico studies, and apoptotic antiproliferative activity of novel thiazole-2-acetamide derivatives as tubulin polymerization inhibitors” (Frontiers in Chemistry, 2025)
Several values for one entry are separate records, joined by “and”; a condition that tells them apart may be missing. Equal values may be shown once. Read-outs that look alike come from different tables or passages of the source.

What was measured:
[1] = tested on: tubulin; design: method as in El-Abd et al., 2022; conditions: ref El-Abd et al., 2022; read-out: Tubulin polymerization IC50; cited from earlier work
[2] = tested on: Bcl-2 in MDAMB-231 cancer cell line; experiment: Bcl-2 level assay; format: cell-based, human; conditions: MDAMB-231 cells; for Bcl-2 Fold reduction: relative to untreated control
From the text: (§1) […]. Supplementary Appendix A provides more information.

[3] = Cell viability assay (MTT), normal cells; format: cell-based; conditions: human, MCF-10A normal mammary gland epithelial cells, four-day incubation
[4] = tested on: colon - HCT-116; experiment: Antiproliferative assay (MTT) HCT-116; conditions: for IC50: read-out: Antiproliferative activity IC50 ± SEM (µM) HCT-116, HCT-116, MTT
[5] = tested on: Caspase-9 in MDAMB-231 cancer cell line; experiment: Caspase-9 activation assay; format: cell-based, human; conditions: MDAMB-231 cells; for Caspase-9 Fold change: relative to untreated control
Description: […]. Compound 10o was the least efficient derivative as caspase-9 activators (0.90 ng/mL).
as §1

[6] = tested on: four human cancer cell lines (HCT-116, PC-3, MCF-7, MDAMB-231); experiment: Antiproliferative assay, mean of four cell lines (GI50); conditions: Homo sapiens, read-out: GI50 (average IC50)
[7] = tested on: prostatic - PC-3; experiment: Antiproliferative assay (MTT) PC-3; conditions: for IC50: read-out: Antiproliferative activity IC50 ± SEM (µM) PC-3, PC-3, MTT
[8] = tested on: Caspase-3 in MDAMB-231 cancer cell line; experiment: Caspase-3 activation assay; format: cell-based, human; conditions: MDAMB-231 cells; for Caspase-3 Fold change: relative to untreated control
From the text: as §1

[9] = tested on: breast - MCF-7; experiment: Antiproliferative assay (MTT) MCF-7; conditions: for IC50: read-out: Antiproliferative activity IC50 ± SEM (µM) MCF-7, MCF-7, MTT
[10] = tested on: tubulin; experiment: Tubulin polymerization inhibition assay (Cytoskeleton kit);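 for all read-outs here: Cell-free tubulin polymerization read by fluorescent reporter enhancement over a 30 min reaction, with the compound-free kit control taken as 100% activity and inhibition relative to it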; conditions: for Tub %inh / Tub. enzyme inhibition assay %inhibition: 30 min; for Tub %inh: YB-EGY run; for Tub K.Activity: EC = 120, YB-EGY run; for IC50: read-out: Tubulin inhibition IC50 ± SEM, triplicate for each tested concentration; for Tub. enzyme inhibition assay %inhibition: codes 522-537 run; for Tub. enzyme inhibition assay K. Activity: control = 120, codes 522-537 run
[11] = tested on: - MDAMB-231; experiment: Antiproliferative assay (MTT) MDAMB-231
[12] = tested on: pancreatic - MDAMB-231; experiment: Antiproliferative assay (MTT) MDAMB-231; conditions: for IC50: read-out: Antiproliferative activity IC50 ± SEM (µM) MDAMB-231, MDAMB-231, MTT
[13] = tested on: Bax in MDAMB-231 cancer cell line; experiment: Bax level assay; format: cell-based, human; conditions: MDAMB-231 cells; for Bax Fold change: relative to untreated control
From the text: as §1

COc1cc(-c2csc(NC(=O)CNc3ccc([N+](=O)[O-])cc3)n2)cc(OC)c1OC [IV]
IC50 [1]: 2 ± 0.12 µM

COc1ccc(/C=C/C(=O)c2sc(SCC(=O)Nc3nc(-c4ccc(C)cc4)cs3)nc2C)cc1 [Compound 10o, (E)-2-((5-(3-(4-methoxyphenyl)acryloyl)-4-methylthiazol-2-yl)thio)-N-(4-(p-tolyl)thiazol-2-yl)acetamide]
Bcl-2 Conc [2]: 1.05 ng/mL
Bcl-2 Fold reduction [2]: 5 fold
viability at 96 h, 50 µM [3]: 90%
Average of Relative viability of cells (%) ([4]; HCT-116, 1.56 µM): 89.1%
Average of Relative viability of cells (%) ([4]; HCT-116, 3.125 µM): 66.5%
Average of Relative viability of cells (%) ([4]; HCT-116, 6.25 µM): 51.6%
Average of Relative viability of cells (%) ([4]; HCT-116, 12.5 µM): 24.5%
Average of Relative viability of cells (%) ([4]; HCT-116, 25 µM): 22.7%
Average of Relative viability of cells (%) ([4]; HCT-116, 50 µM): 15.2%
Average of Relative viability of cells (%) ([4]; HCT-116, 100 µM): 7.8%
IC50 [4]: 6 ± 0.4 µM
Caspase-9 Conc [5]: 0.90 ng/mL and 0.90 ± 0.10 ng/mL
Caspase-9 Fold change [5]: 9 fold
IC50 [6]: 7 µM
Average of Relative viability of cells (%) ([7]; PC-3, 1.56 µM): 99.3%
Average of Relative viability of cells (%) ([7]; PC-3, 3.125 µM): 87.4%
Average of Relative viability of cells (%) ([7]; PC-3, 6.25 µM): 61.1%
Average of Relative viability of cells (%) ([7]; PC-3, 12.5 µM): 48.2%
Average of Relative viability of cells (%) ([7]; PC-3, 25 µM): 31.6%
Average of Relative viability of cells (%) ([7]; PC-3, 50 µM): 23.7%
Average of Relative viability of cells (%) ([7]; PC-3, 100 µM): 14.3%
IC50 [7]: 13 ± 1 µM
Caspase-3 Conc [8]: 605 ± 5 pg/mL
Caspase-3 Fold change [8]: 9 fold
Average of Relative viability of cells (%) ([9]; MCF-7, 1.56 µM): 73.4%
Average of Relative viability of cells (%) ([9]; MCF-7, 3.125 µM): 61.6%
Average of Relative viability of cells (%) ([9]; MCF-7, 6.25 µM): 45.1%
Average of Relative viability of cells (%) ([9]; MCF-7, 12.5 µM): 29.7%
Average of Relative viability of cells (%) ([9]; MCF-7, 25 µM): 20.3%
Average of Relative viability of cells (%) ([9]; MCF-7, 50 µM): 11.9%
Average of Relative viability of cells (%) ([9]; MCF-7, 100 µM): 7.2%
IC50 [9]: 5 ± 0.4 µM
Tub %inh ([10]; conc 0.1 (unit not given)): 16%
Tub K.Activity ([10]; conc 0.1 (unit not given)): 100.77
Tub %inh ([10]; conc 1 (unit not given)): 34%
Tub K.Activity ([10]; conc 1 (unit not given)): 79.173
Tub %inh ([10]; conc 10 (unit not given)): 54.8%
Tub K.Activity ([10]; conc 10 (unit not given)): 54.254
Tub %inh ([10]; conc 50 (unit not given)): 76.2%
Tub K.Activity ([10]; conc 50 (unit not given)): 28.504
Tub %inh ([10]; conc 100 (unit not given)): 90.9%
Tub K.Activity ([10]; conc 100 (unit not given)): 10.964
IC50 [10]: 3.62 ± 0.11 µM
Average of Relative viability of cells (%) ([11]; MDAMB-231, 1.56 µM): 61.2%
Average of Relative viability of cells (%) ([11]; MDAMB-231, 3.125 µM): 47.1%
Average of Relative viability of cells (%) ([11]; MDAMB-231, 6.25 µM): 37.3%
Average of Relative viability of cells (%) ([11]; MDAMB-231, 12.5 µM): 26.7%
Average of Relative viability of cells (%) ([11]; MDAMB-231, 25 µM): 17.6%
Average of Relative viability of cells (%) ([11]; MDAMB-231, 50 µM): 10.2%
Average of Relative viability of cells (%) ([11]; MDAMB-231, 100 µM): 4.5%
More potency than sorafenib, MDAMB-231 ([12]; MDAMB-231 cancer cell line): 2.7 fold
IC50 [12]: 3 ± 0.1 µM
Bax Conc [13]: 285 pg/mL and 285 ± 7 pg/mL
Bax Fold change [13]: 35 fold

Cc1ccc(/C=C/C(=O)c2sc(SCC(=O)Nc3nccs3)nc2C)cc1 [Compound 13d, (E)-2-((4-methyl-5-(3-(p-tolyl)acryloyl)thiazol-2-yl)thio)-N-(thiazol-2-yl)acetamide]
Bcl-2 Conc [2]: 0.80 ng/mL
Bcl-2 Fold reduction [2]: 6 fold
viability at 96 h, 50 µM [3]: 90%
Average of Relative viability of cells (%) ([4]; HCT-116, 1.56 µM): 90.6%
Average of Relative viability of cells (%) ([4]; HCT-116, 3.125 µM): 69.8%
Average of Relative viability of cells (%) ([4]; HCT-116, 6.25 µM): 63.9%
Average of Relative viability of cells (%) ([4]; HCT-116, 12.5 µM): 32.7%
Average of Relative viability of cells (%) ([4]; HCT-116, 25 µM): 26.5%
Average of Relative viability of cells (%) ([4]; HCT-116, 50 µM): 17.4%
Average of Relative viability of cells (%) ([4]; HCT-116, 100 µM): 9.2%
IC50 [4]: 9 ± 0.9 µM
Caspase-9 Conc [5]: 1.50 ng/mL and 1.50 ± 0.10 ng/mL
Caspase-9 Fold change [5]: 15 fold
IC50 [6]: 8 µM
Average of Relative viability of cells (%) ([7]; PC-3, 1.56 µM): 97.1%
Average of Relative viability of cells (%) ([7]; PC-3, 3.125 µM): 83.3%
Average of Relative viability of cells (%) ([7]; PC-3, 6.25 µM): 57.8%
Average of Relative viability of cells (%) ([7]; PC-3, 12.5 µM): 35.6%
Average of Relative viability of cells (%) ([7]; PC-3, 25 µM): 20.5%
Average of Relative viability of cells (%) ([7]; PC-3, 50 µM): 19.4%
Average of Relative viability of cells (%) ([7]; PC-3, 100 µM): 7.6%
IC50 [7]: 9 ± 0.8 µM
Caspase-3 Conc [8]: 690 ± 5 pg/mL
Caspase-3 Fold change [8]: 11 fold
Caspase-3 Fold change ([8]; listed as 13g): ~10 fold
Average of Relative viability of cells (%) ([9]; MCF-7, 1.56 µM): 88.6%
Average of Relative viability of cells (%) ([9]; MCF-7, 3.125 µM): 71.2%
Average of Relative viability of cells (%) ([9]; MCF-7, 6.25 µM): 45.2%
Average of Relative viability of cells (%) ([9]; MCF-7, 12.5 µM): 32.4%
Average of Relative viability of cells (%) ([9]; MCF-7, 25 µM): 24.5%
Average of Relative viability of cells (%) ([9]; MCF-7, 50 µM): 17.1%
Average of Relative viability of cells (%) ([9]; MCF-7, 100 µM): 8.3%
IC50 [9]: 7 ± 0.4 µM
Tub. enzyme inhibition assay %inhibition ([10]; conc 0.01 (unit not given)): 6.76%
Tub. enzyme inhibition assay K. Activity ([10]; conc 0.01 (unit not given)): 111.89
Tub. enzyme inhibition assay %inhibition ([10]; conc 0.1 (unit not given)): 21%
Tub. enzyme inhibition assay K. Activity ([10]; conc 0.1 (unit not given)): 94.779
Tub. enzyme inhibition assay %inhibition ([10]; conc 1 (unit not given)): 47.4%
Tub. enzyme inhibition assay K. Activity ([10]; conc 1 (unit not given)): 63.07
Tub. enzyme inhibition assay %inhibition ([10]; conc 10 (unit not given)): 68.5%
Tub. enzyme inhibition assay K. Activity ([10]; conc 10 (unit not given)): 37.815
Tub. enzyme inhibition assay %inhibition ([10]; conc 100 (unit not given)): 87%
Tub. enzyme inhibition assay K. Activity ([10]; conc 100 (unit not given)): 15.546
IC50 [10]: 3.68 ± 0.14 µM
Tub. (IC50) IC50±SD ([10]; supplement raw data, lab codes): 1.53 ± 0.06 µg/mL
Average of Relative viability of cells (%) ([11]; MDAMB-231, 1.56 µM): 71.2%
Average of Relative viability of cells (%) ([11]; MDAMB-231, 3.125 µM): 57.9%
Average of Relative viability of cells (%) ([11]; MDAMB-231, 6.25 µM): 45.6%
Average of Relative viability of cells (%) ([11]; MDAMB-231, 12.5 µM): 35.2%
Average of Relative viability of cells (%) ([11]; MDAMB-231, 25 µM): 15.6%
Average of Relative viability of cells (%) ([11]; MDAMB-231, 50 µM): 11.3%
Average of Relative viability of cells (%) ([11]; MDAMB-231, 100 µM): 7.5%
IC50 [12]: 5 ± 0.3 µM
Bax Conc [13]: 320 pg/mL and 320 ± 8 pg/mL
Bax Fold change [13]: 40 fold
